Results from patent US6764682B1, “Adjuvant compositions containing more than one adjuvant” (priority 1994, dated 2004).

What was measured:
Format in all cases: in vivo
[1] = tested on: peptide-specific IgG antibodies; assay: Guinea pig antibody responses to synthetic peptides formulated with different adjuvants (peptide-specific ELISA); settings: mean titer of three guinea pigs, three injections
CLTB-36 = assay: Guinea pig antibody response to CLTB-36 in different adjuvants, ELISA titer against CLTB-36; settings: guinea pigs (n = 3) immunized with 20 μg CLTB-36 in the named adjuvant; boosters at 2, 4 and 6 weeks
CLTB-56 = assay: Guinea pig antibody response to CLTB-36 in different adjuvants, ELISA titer against CLTB-56; settings: guinea pigs (n = 3) immunized with 20 μg CLTB-36 in the named adjuvant; boosters at 2, 4 and 6 weeks
[2] = Table 3, adjuvant BAY R1005 + alum, 100 μg peptide per dose
[3] = adjuvant BAY R1005, 100 μg peptide per dose (CLTB-36 20 μg)
[4] = adjuvant CFA, 100 μg peptide per dose (CLTB-36 20 μg)
[5] = adjuvant OTH, 100 μg peptide per dose (CLTB-36 20 μg)
[6] = adjuvant TPC, 100 μg peptide per dose (CLTB-36 20 μg)
[7] = adjuvant alum, 100 μg peptide per dose (CLTB-36 20 μg)
[8] = peptide in PBS (no adjuvant), 100 μg peptide per dose (CLTB-36 20 μg)

Compound: PIVNKQSCSISNIETVIEFQQ [RSV-FND2]
- Peptide-Specific Antibody Titre [1, 2]: 25,600
- Peptide-Specific Antibody Titre ([1]; Table 3, adjuvant BAY R1005, 100 μg peptide per dose): 10,000
- Peptide-Specific Antibody Titre ([1]; Table 3, adjuvant alum, 100 μg peptide per dose): 7,800
- Peptide-Specific Antibody Titre [1, 3]: 10,000
- Peptide-Specific Antibody Titre [1, 4]: 12,800
- Peptide-Specific Antibody Titre [1, 5]: 6,400
- Peptide-Specific Antibody Titre [1, 6]: 3,200
- Peptide-Specific Antibody Titre [1, 7]: 7,800
- Peptide-Specific Antibody Titre [1, 8]: 400

Compound: CSNNPTCWAICKRIPNKKPGKKT [RSV-G2]
- Peptide-Specific Antibody Titre [1, 3]: 3,200
- Peptide-Specific Antibody Titre [1, 4]: 128,000
- Peptide-Specific Antibody Titre [1, 6]: 1,600
- Peptide-Specific Antibody Titre [1, 7]: 31,500
- Peptide-Specific Antibody Titre [1, 8]: 1,280

Compound: GPKEPFRDYVDRFYKNTRKRIRIQRGGRAFVTIGK [CLTB-72]
- Peptide-Specific Antibody Titre [1, 3]: 45,800
- Peptide-Specific Antibody Titre [1, 4]: 312,500
- Peptide-Specific Antibody Titre [1, 5]: 6,400
- Peptide-Specific Antibody Titre [1, 6]: 3,200
- Peptide-Specific Antibody Titre [1, 7]: 37,500
- Peptide-Specific Antibody Titre [1, 8]: 2,333

Compound: GPKEPFRDYVDRFYKNRKRIHIGPGRAFYTTKN [CLTB-36]
- Peptide-Specific Antibody Titre [1, 3]: 72,800
- Peptide-Specific Antibody Titre [1, 4]: 256,000
- Peptide-Specific Antibody Titre [1, 5]: 6,400
- Peptide-Specific Antibody Titre [1, 6]: 3,200
- Peptide-Specific Antibody Titre [1, 7]: 10,000
- Peptide-Specific Antibody Titre [1, 8]: 400

Compound: CC(=O)O.CCCCCCCCCCCCCCCCCCN(C(=O)CCCCCCCCCCC)[C@@H]1O[C@H](CO)[C@@H](O)[C@H](O)[C@H]1NC(=O)[C@@H](N)CC(C)C [BAY R1005, N-(2-deoxy-2-L-leucylamino-β-D-glucopyranosyl)-N-octadecyldodecanamide acetate]
- Average titers against CLTB-36 (CLTB-36): 62,500
- Average titers against CLTB-56 (CLTB-56): 4,333

Compound: NQITSALSTQQEFRDLKKYLPSKDKSVVSLQDRAC [HIBP1-5E]
- Peptide-Specific Antibody Titre [1, 3]: 32,500
- Peptide-Specific Antibody Titre [1, 4]: 312,500
- Peptide-Specific Antibody Titre [1, 6]: 1,600
- Peptide-Specific Antibody Titre [1, 7]: 8,333
- Peptide-Specific Antibody Titre [1, 8]: 200

Compound: TKQRQNKPPSKPNNDFHFEVFNFVPC [RSV-G1]
- Peptide-Specific Antibody Titre [1, 3]: 31,500
- Peptide-Specific Antibody Titre [1, 4]: 315,000
- Peptide-Specific Antibody Titre [1, 6]: 6,400
- Peptide-Specific Antibody Titre [1, 7]: 128,000
- Peptide-Specific Antibody Titre [1, 8]: 1,600

Compound: GPKEPFRDYVDRFYKNTRQSTPIGLGQALYTTRG [CLTB-76]
- Peptide-Specific Antibody Titre [1, 3]: 45,833
- Peptide-Specific Antibody Titre [1, 4]: 625,000
- Peptide-Specific Antibody Titre [1, 5]: 6,400
- Peptide-Specific Antibody Titre [1, 6]: 3,200
- Peptide-Specific Antibody Titre [1, 7]: 9,166
- Peptide-Specific Antibody Titre [1, 8]: 1,833

Compound: PQPGPQPPQPPQPQPEAPAPQPPC [69K-P1]
- Peptide-Specific Antibody Titre [1, 3]: 32,500
- Peptide-Specific Antibody Titre [1, 4]: 10,000
- Peptide-Specific Antibody Titre [1, 6]: 1,600
- Peptide-Specific Antibody Titre [1, 7]: 32,500
- Peptide-Specific Antibody Titre [1, 8]: 800

Compound: PDPGDLVEYIMNYTGNQQSRWGLGSPNCHGPDWASPVCQRHSP [RV-EP27]
- Peptide-Specific Antibody Titre [1, 4]: 128,000
- Peptide-Specific Antibody Titre [1, 5]: 25,600
- Peptide-Specific Antibody Titre [1, 7]: 12,800
- Peptide-Specific Antibody Titre [1, 8]: 400

Compound: QSYSIMSIIKEEVLAYAVQLPLPLYGVIDTP [RSV-F]
- Peptide-Specific Antibody Titre [1, 2]: 128,000
- Peptide-Specific Antibody Titre [1, 3]: 3,850
- Peptide-Specific Antibody Titre [1, 4]: 6,400
- Peptide-Specific Antibody Titre [1, 5]: 3,200
- Peptide-Specific Antibody Titre [1, 6]: 1,600
- Peptide-Specific Antibody Titre [1, 7]: 32,000
- Peptide-Specific Antibody Titre [1, 8]: 500

Compound: TVGKKTYQVEACCSNLSYVKFGM [TBP2-3]
- Peptide-Specific Antibody Titre [1, 3]: 32,500
- Peptide-Specific Antibody Titre [1, 4]: 12,500
- Peptide-Specific Antibody Titre [1, 7]: 43,333
- Peptide-Specific Antibody Titre [1, 8]: 400

Compound: IKEIDESESEDYAKEGFRAP [PSP-AA]
- Peptide-Specific Antibody Titre [1, 4]: 12,500
- Peptide-Specific Antibody Titre [1, 7]: 1,600
- Peptide-Specific Antibody Titre [1, 8]: 200
